From US20240108683A1, “Method for Side Effect Reduction in the Use of Statins Via Physiologically Synthesized Glutathione” (Proimmune Co. LLC, priority 2014, published 2024)

What was measured:
[1] = as compared to L-cysteine; cited from earlier work
oxidized lipid products = assay: Human clinical trial, scavenging of oxidized lipid products; format: in vivo
Text: Moreover, the pharmacological effect of the composition of the instant invention as a replacement of the statin model was unexpected. […] Reason: the instant invention physiologically provides more rate-limiting L-cysteine available in the cell together with the other constituents of glutathione.

In the case of `N[C@@H](CSSC[C@H](N)C(=O)O)C(=O)O` [L-cystine], the water solubility [1] is given as “water insoluble”.
In the case of `CC(=O)N[C@@H](CS)C(=O)O` [N-acetylcysteine], the “scavenging of oxidized lipid products” value (oxidized lipid products) is reported as 1%.
